The subject of assay [1] is LoVo. Put plainly: Antiproliferative activity against human LoVo cells. The format is functional, cell-based.
Assay [2] is described as follows: Antiproliferative activity against human LoVo/DX cells. The class given is functional, cell-based.
Assay [3] concerns BALB/3T3. Briefly: Cytotoxicity against mouse BALB/3T3 cells. The class given is cell-based.
Assay [4] in a line: Selectivity index, ratio of IC50 for mouse BALB/3T3 cells to IC50 for human LoVo cells. The class given is functional.
Assay [5] in a line: Selectivity index, ratio of IC50 for mouse BALB/3T3 cells to IC50 for human LoVo/Dx cells. The class given is functional.
The subject of assay [6] is LoVo. Put plainly: Resistance index, ratio of IC50 for human LoVo/DX cells to IC50 for human LoVo cells. The format is functional.
For assay [7], the system named is MV4-11. Briefly: Antiproliferative activity against human MV4-11 cells. The class given is functional, cell-based.
Assay [8] can be described thus: Selectivity index, ratio of IC50 for mouse BALB/3T3 cells to IC50 for human MV4-11 cells. The format is functional.

As a reminder, the IC50 is the point on the concentration scale where inhibition reaches its midpoint. A high value points to a need for much substance. On to `COc1cccc2c1C(=O)c1c(O)c3c(c(O)c1C2=O)C[C@@](O)(C(=O)CO)C[C@@H]3O[C@H]1C[C@H](N)[C@H](O)[C@H](C)O1` [DOXORUBICIN], for which the IC50 came to 0.28 µM in assay [1], 6.73 µM in assay [2] and 0.53 µM in assay [3]. Also, the entries for the “Ratio IC50” value in assay [4], in assay [5] and in assay [6] were 1.89, 0.08 and 23.62, respectively.
In the case of `CCCN(CCC)C(=O)[C@@H](C)[C@H](OC)[C@H](C)[C@H]1O[C@@]2(CC[C@@](C)([C@H]3CC[C@@](CC)([C@@H]4O[C@@H]([C@H]5O[C@@](O)(CO)[C@H](C)C[C@@H]5C)C[C@@H]4C)O3)O2)C[C@H](O)[C@H]1C`, the IC50 came to 4.35 µM in assay [1], 6.09 µM in assay [2], 5.96 µM in assay [7] and 7.73 µM in assay [3]. Besides, the “Ratio IC50” value in assay [4] was determined as 1.78; in assay [5], 1.27; in assay [6] it was 1.4; in assay [8], 1.3.
As for `CC[C@@]1([C@@H]2O[C@@H]([C@H]3O[C@@](O)(CO)[C@H](C)C[C@@H]3C)C[C@@H]2C)CC[C@H]([C@]2(C)CC[C@]3(C[C@H](O)[C@@H](C)[C@@H]([C@@H](C)[C@@H](OC)[C@H](C)C(=O)N4CCOCC4)O3)O2)O1`, the IC50 in assay [1] is 19.8 µM; in assay [2], 4.86 µM; in assay [7], 2.51 µM; in assay [3], 49.6 µM. Moreover, the “Ratio IC50” value came out at 2.5 in assay [4], 10.21 in assay [5], 0.25 in assay [6] and 19.78 in assay [8].
As for `CC[C@@]1([C@@H]2O[C@@H]([C@H]3O[C@@](O)(CO)[C@H](C)C[C@@H]3C)C[C@@H]2C)CC[C@H]([C@]2(C)CC[C@]3(C[C@H](O)[C@@H](C)[C@@H]([C@@H](C)[C@@H](OC)[C@H](C)C(=O)N(CCOC)CCOC)O3)O2)O1`, the IC50 in assay [1] is 36.6 µM; in assay [2], 10.1 µM; in assay [7] it was 27.5 µM; in assay [3], 42 µM. For the same compound, the “Ratio IC50” value came to 1.15 in assay [4], 4.16 in assay [5], 0.28 in assay [6] and 1.53 in assay [8].
Take `CCN(CC)C(=O)[C@@H](C)[C@H](OC)[C@H](C)[C@H]1O[C@@]2(CC[C@@](C)([C@H]3CC[C@@](CC)([C@@H]4O[C@@H]([C@H]5O[C@@](O)(CO)[C@H](C)C[C@@H]5C)C[C@@H]4C)O3)O2)C[C@H](O)[C@H]1C`: the IC50 worked out at 10.7 µM in assay [1], 4.63 µM in assay [2], 5.44 µM in assay [7] and 28.1 µM in assay [3]. Further, the “Ratio IC50” value was determined as 2.63 in assay [4], 6.07 in assay [5], 0.43 in assay [6] and 5.17 in assay [8].
Regarding `CC[C@@]1([C@@H]2O[C@@H]([C@H]3O[C@@](O)(CO)[C@H](C)C[C@@H]3C)C[C@@H]2C)CC[C@H]([C@]2(C)CC[C@]3(C[C@H](O)[C@@H](C)[C@@H]([C@@H](C)[C@@H](OC)[C@H](C)C(=O)N4CCNCC4)O3)O2)O1`, the IC50 in assay [1] stood at 8.65 µM; in assay [2], 20.7 µM; in assay [7], 3.24 µM; in assay [3], 33 µM. Further, the “Ratio IC50” value in assay [4] turned out to be 3.82; in assay [5] it was 1.6; in assay [6] it was 2.39; in assay [8], 10.19.
In the case of `CC[C@@]1([C@@H]2O[C@@H]([C@H]3O[C@@](O)(CO)[C@H](C)C[C@@H]3C)C[C@@H]2C)CC[C@H]([C@]2(C)CC[C@]3(C[C@H](O)[C@@H](C)[C@@H]([C@@H](C)[C@@H](OC)[C@H](C)C(=O)N(Cc4ccccc4)Cc4ccccc4)O3)O2)O1`, the 50% inhibitory concentration (IC50) in assay [1] came to 3.71 µM; in assay [2] it was 3.78 µM; in assay [7] it was 3.28 µM; in assay [3] it was 13.1 µM. In addition, the “Ratio IC50” value in assay [4] came out at 3.53; in assay [5], 3.46; in assay [6], 1.02; in assay [8], 3.99.
Take `CC[C@@]1([C@@H]2O[C@@H]([C@H]3O[C@@](O)(CO)[C@H](C)C[C@@H]3C)C[C@@H]2C)CC[C@H]([C@]2(C)CC[C@]3(C[C@H](O)[C@@H](C)[C@@H]([C@@H](C)[C@@H](OC)[C@H](C)C(=O)O)O3)O2)O1` [MONENSIN]: the IC50 in assay [1] was 1.09 µM; in assay [2], 0.61 µM; in assay [7], 0.09 µM; in assay [3], 20.9 µM. Further, the “Ratio IC50” value came out at 19.17 in assay [4], 34.25 in assay [5], 0.56 in assay [6] and 232.11 in assay [8].

For the origin of these results see ChEMBL document CHEMBL3616376, “Anti-proliferative activity of Monensin and its tertiary amide derivatives” (Bioorg Med Chem Lett, 2015).
